Measured values from patent US20240336617A1, “Substituted Bimane Compounds and Methods of Use Thereof” (THE TRUSTEES OF THE UNIVERSITY OF PENNSYLVANIA, priority 2023, published 2024).

Experiments:
[1] = Viscosity measurements (glycerol mixtures); assay type: physicochemical
Protocol: As a representative example, the viscosity of 7k (25 μM, 10 mM stock in DMSO) in glycerol/methanol mixtures were measured, varying the glycerol percentage 0-99%.
Viscosity measurements. As a representative example, we have measured the viscosity of 5k (25 μM, 10 mM stock in DMSO) in glycerol/ethylene glycol (G/EG) mixtures, varying the glycerol percentage 0-90%. Then, the emission spectra were recorded using a PTI QuantaMaster™ 40 fluorescence spectrometer by excitation with 385 nm wavelength.

[2] = target: T1, tau fibrils (Homo sapiens, UniProt P10636); experiment: Fluorescence and excitation spectra with tau fibrils; assay type: binding
T1 construct: made in house; host or cells: E. coli BL21
Protocol: (§1) Fluorescence measurements were performed using a PTI QuantaMaster™ 40 fluorescence spectrometer. Fluorescence spectra of 5 μM probes (concentrated stock solution prepared as 10 mM in DMSO) (7j, 7k, 7l, 7m, and ThT) in PBS buffer were measured in the absence and presence of 25 μM tau fibrils (stock solution 32 μM tau fibrils in PBS buffer).
as §1, with “Excitation spectral measurements” for “Fluorescence measurements”, “spectrometer. Excitation” for “spectrometer. Fluorescence”
as §1, with “QuantaMaster” for “QuantaMaster™”, “(5j, 5k,” for “(7j, 7k, 7l, 7m,”
Excitation spectral measurements were performed using a PTI QuantaMaster™ 40 fluorescence spectrometer. Excitation spectra of 5 μM probes (concentrated stock solution prepared as 10 mM in DMSO) (5j, 5k, and ThT) in PBS buffer were measured in the absence and presence of 25 μM tau fibrils (stock solution 32 μM tau fibrils in PBS buffer). […]

[3] = target: T2, αS fibrils in HEK cell lysate (Homo sapiens, UniProt P37840); experiment: Selectivity of probes binding with αS fibrils in HEK cell lysate; details: 10 mg/mL total protein; probe 1 μM
T2 construct: intein-His6 (C, cleaved yes); made in house; host or cells: Escherichia coli BL21
Protocol: HEK 293T cells were grown on 150 mm dishes in sterile-filtered Dulbecco's modified Eagle's medium (Gibco, Thermo Fisher) supplemented with 10% fetal bovine serum (FBS), 1% penicillin/streptomycin (Mediatech, 10 mg/ml each). Cells were then washed with PBS and harvested in 5 mL PBS by scraping. Cells were pelleted by centrifugation at 1000 rpm for 5 min, and the supernatant was removed. The resulting cell pellet was re-suspended in 300-500 μL PBS buffer with 0.1% Triton X-100 (Bio-Rad) and 1×HALT protease inhibitor cocktail without EDTA (Thermo Fisher), then lysed by sonication for two 30 s cycles (cycle 1: 2 s on 2 s off, amp 50; cycle 2: 2 s on 2 s off, amp 55) using a QSonica Q700 sonicator fitted with a microtip. […]
Probes in PBS buffer (1 μM, the stock solution prepared as 10 mM in DMSO) were incubated with different αS fibril concentrations (0, 5, 10, 25 and 50 μM) in the presence of 10 mg/mL HEK cell lysate in Greiner 96 well flat black ½ area plates at 37° C. with shaking at 500 rpm for 15 min in an IKA MS3 control orbital shaker. After 15 min incubation, fluorescence intensity measurements were obtained with a Tecan Spark plate reader (Mannedorf, Switzerland) by excitation with λex/λem=424/570 nm for 7k, λex/λem=463/580 nm for 7l, λex/λem=484/620 nm for 7m, using the following parameters: excitation and emission bandwidth 5 nm, delay time 0 μs, integration time 40 μs. […]

[4] = target: T3, αS fibrils (Homo sapiens, UniProt P37840); experiment: Fractionation (total, supernatant, pellet) of αS fibrils with probe; assay type: binding; details: T, S, P fractions
T3 construct: intein-His6 (C, cleaved yes); made in house; host or cells: Escherichia coli BL21

[5] = target: T3, αS fibrils; experiment: Competition binding with ThT on αS fibrils

T1 sequence (P10636 1-412 isoform P10636-7): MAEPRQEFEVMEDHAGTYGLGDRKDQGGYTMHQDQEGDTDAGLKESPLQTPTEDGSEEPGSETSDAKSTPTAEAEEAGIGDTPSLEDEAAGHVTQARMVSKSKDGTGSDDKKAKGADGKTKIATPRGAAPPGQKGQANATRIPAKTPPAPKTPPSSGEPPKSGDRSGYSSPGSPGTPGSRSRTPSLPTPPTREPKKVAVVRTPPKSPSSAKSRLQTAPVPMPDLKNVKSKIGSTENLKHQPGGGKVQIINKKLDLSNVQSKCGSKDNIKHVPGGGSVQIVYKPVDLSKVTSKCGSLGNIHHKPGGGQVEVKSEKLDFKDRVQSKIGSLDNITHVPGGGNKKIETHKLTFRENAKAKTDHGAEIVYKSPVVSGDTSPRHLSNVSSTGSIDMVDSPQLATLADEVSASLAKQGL

Row | SMILES | increase in fluorescence intensity with increased % glycerol ([1]; ethylene glycol/glycerol mixtures) [fold] | emission maximum bound to tau [2] [nm] | detection of PFFs in cytosolic HEK cell lysate [3] | fractionation of αS fibrils with probe [4] | increase in fluorescence intensity with % glycerol ([1]; glycerol/MeOH mixtures) [fold] | red-shift with % glycerol ([1]; glycerol/MeOH mixtures) [nm] | competition with ThT on αS PFFs [5]
1 | Cc1c(C)n2c(/C=C/c3ccc(N(C)C)cc3)c(C)c(=O)n2c1=O [Compound 7l, (E)-3-(4-(dimethylamino)styryl)-2,5,6-trimethyl-1H,7H-pyrazolo[1,2-a]pyrazole-1,7-dione] | 3.7 | 596 | higher fluorescence turn on | selectively binds to the fibrils | – | – | –
2 | Cc1c(C)n2c(/C=C/c3ccc(N4CCOCC4)cc3)c(C)c(=O)n2c1=O [Compound 7k, (E)-2,3,6-trimethyl-5-(4-morpholinostyryl)-1H,7H-pyrazolo[1,2-a]pyrazole-1,7-dione] | – | – | higher fluorescence turn on | – | > 6 | 12 | higher affinity compared than ThT
3 | Cc1c(C)n2c(/C=C/C=C/c3ccc(N(C)C)cc3)c(C)c(=O)n2c1=O [Compound 7m, 3-((1E,3E)-4-(4-(dimethylamino)phenyl)buta-1,3-dien-1-yl)-2,5,6-trimethyl-1H,7H-pyrazolo[1,2-a]pyrazole-1,7-dione] | – | – | – | retained its fluorescence in the pellet fraction more than 2a | – | – | –
